14 compounds from ChEMBL document CHEMBL5214926, “Recent contribution of medicinally active 2-aminothiophenes: A privileged scaffold for drug discovery” (Eur J Med Chem, 2022) can be followed below.

For data set [1], the species on record is Homo sapiens. Briefly: Inhibition of CaCC (unknown origin) current potentiation at 10 uM relative to control.
Data set [2] can be described thus: Inhibition of CaCC current potentiation in rat cerebellar Purkinje neurons by electrophysiological method.
A short description of data set [3]: Inhibition of CaCC (unknown origin) current potentiation. The arrangement: species or system Homo sapiens.
For data set [4], the system named is Epidermophyton floccosum. The experiment in a line: Antifungal activity against Epidermophyton floccosum 6999 assessed as fungal growth inhibition by spectrophotometry. In kind it is functional.
In data set [5] the test system is Trichophyton tonsurans. The experiment in a line: Antifungal activity against Trichophyton tonsurans 700 assessed as fungal growth inhibition by spectrophotometry. In kind it is functional.
Data set [6] concerns Trichophyton mentagrophytes. The experiment in a line: Antifungal activity against Trichophyton mentagrophytes 5431 assessed as fungal growth inhibition by spectrophotometry. The format is functional.
For data set [7], the system named is Trichophyton rubrum. The experiment in a line: Antifungal activity against Trichophyton rubrum 6753 assessed as fungal growth inhibition by spectrophotometry. The format is functional.
For data set [8], the system named is Trichophyton mentagrophytes. Briefly: Antifungal activity against Trichophyton mentagrophytes 5432 assessed as fungal growth inhibition by spectrophotometry. The format is functional.
In data set [9] the test system is JAR. Briefly: Cytotoxicity against human JAR cells assessed as cell growth inhibition at 10 uM relative to control. The format is functional.
The test system of data set [10] is Candida parapsilosis. Briefly: Antifungal activity against Candida parapsilosis ATCC 22019 assessed as fungal growth inhibition by spectrophotometry. The format is functional. To be noted: Lodderomyces parapsilosis.
In data set [11] the test system is Staphylococcus aureus. The experiment in a line: Inhibition of EtBr efflux in Staphylococcus aureus SA-1 assessed as reduction in fluorescence intensity at 50 uM measured after 30 mins by spectrophotometry relative to control. The format is functional. On the set-up: scale not given: the % may be the effect or the level left.
Data set [12] is filed under the species Homo sapiens. Briefly: Induction of CaCC (unknown origin) current potentiation at 10 uM relative to control.
Data set [13] concerns Trichophyton tonsurans. Briefly: Antifungal activity against Trichophyton tonsurans 2822 assessed as fungal growth inhibition by spectrophotometry. The format is functional.
In data set [14] the test system is Staphylococcus coagulans. The experiment in a line: Antimicrobial activity against Staphylococcus coagulans assessed as microbial growth inhibition incubated for 24 hrs by disc diffusion assay. In kind it is functional. (A growth-free zone around the sample is the usual read-out of agar diffusion tests.)
Data set [15] has as its system Heyndrickxia coagulans. Briefly: Antibacterial activity against Bacillus coagulans assessed as bacterial growth inhibition. In kind it is functional.
The test system of data set [16] is Enterococcus faecalis. Briefly: Antibacterial activity against Enterococcus faecalis assessed as bacterial growth inhibition. In kind it is functional.
For data set [17], the system named is Perkinsus sp. Briefly: Antiprotozoal activity against Perkinsus sp. assessed as reduction in hypnospore viability at 500 uM measured after 48 hrs by microscopic analysis relative to control. In kind it is functional.
Data set [18] deals with Candida tropicalis. Briefly: Antifungal activity against Candida tropicalis URM 4262 assessed as fungal growth inhibition around drug-chitosan film at 1.28 mg/ml. To be noted: read-out: DIZ. In kind it is functional.
The subject of data set [19] is Epidermophyton floccosum. The experiment in a line: Antifungal activity against Epidermophyton floccosum 6754 assessed as fungal growth inhibition by spectrophotometry. The format is functional.
Data set [20] relates to K562. The experiment in a line: Cytotoxicity against human K562 cells assessed as cell growth inhibition. In kind it is functional, cell-based.
Data set [21] concerns the target T1, TGF-beta receptor type-1 (Homo sapiens, UniProt P36897).
T1 sequence (P36897 whole entry): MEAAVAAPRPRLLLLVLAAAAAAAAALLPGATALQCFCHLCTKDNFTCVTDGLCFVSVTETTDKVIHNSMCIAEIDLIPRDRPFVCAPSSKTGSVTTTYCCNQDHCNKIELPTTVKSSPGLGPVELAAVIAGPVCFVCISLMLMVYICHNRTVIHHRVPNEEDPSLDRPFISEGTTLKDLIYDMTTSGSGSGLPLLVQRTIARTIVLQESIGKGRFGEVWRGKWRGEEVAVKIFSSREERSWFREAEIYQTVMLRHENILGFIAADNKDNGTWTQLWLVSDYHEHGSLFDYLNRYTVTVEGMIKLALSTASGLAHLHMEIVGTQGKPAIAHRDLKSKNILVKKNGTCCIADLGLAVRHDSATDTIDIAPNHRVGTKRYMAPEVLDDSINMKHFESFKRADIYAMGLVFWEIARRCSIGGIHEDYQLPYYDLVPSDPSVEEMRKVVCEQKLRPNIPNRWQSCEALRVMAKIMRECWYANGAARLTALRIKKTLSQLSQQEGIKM
Briefly: Inhibition of human TGF-beta-R1 using TMB substrate incubated for 2.5 hrs by microplate reader analysis.

Data set [22] is described as follows: Cytotoxicity against human WI-38 cells assessed as cell growth inhibition incubated for 2 days by MTT assay. The format is toxicity, cell-based.
Data set [23] concerns PC-3. The experiment in a line: Cytotoxicity against human PC-3 cells assessed as cell growth inhibition incubated for 2 days by MTT assay. The settings on record: PC-3, 48 h. In kind it is functional, cell-based.
For data set [24], the system named is HepG2. The experiment in a line: Cytotoxicity against human HepG2 cells assessed as cell growth inhibition incubated for 2 days by MTT assay. To be noted: HepG2, 48 h. In kind it is functional, cell-based. On the technique in general: Formazan colour is commonly taken as a measure of viable cells.
The test system of data set [25] is MCF7. Briefly: Cytotoxicity against human MCF7 cells assessed as cell growth inhibition incubated for 2 days by MTT assay. The format is functional, cell-based. The settings on record: MCF7, 48 h.
Data set [26] deals with Epidermophyton floccosum. Briefly: Antifungal activity against Epidermophyton floccosum assessed as fungal growth inhibition incubated for 7 days by spectrophotometry. The format is functional. To be noted: 168 h, time 7 day.

SMILES strings stand for the structures. Values after ≈ are worked out from the molar mass of the structure shown.

Regarding `C=CCNC(=S)Nc1sc2c(c1C(=O)OC)CCCC2`, the inhibition in data set [1] worked out at 40%.

On to `COC(=O)c1c(NC(=O)Cn2cc(CNC34CC5CC(CC(C5)C3)C4)nn2)sc2c1CCCC2`, for which the IC50 in [2] and in data set [3] was 1.6 µM throughout.

Regarding `COc1cc(/C=N/c2sccc2C#N)cc(OC)c1OC`, the MIC was determined as 256 µg/mL (≈ 847 µM) in [4]; 128 µg/mL (≈ 423 µM) in data set [5]; 256 µg/mL (≈ 847 µM) in [6]; 64 µg/mL (≈ 212 µM) in [7]; 128 µg/mL (≈ 423 µM) in [8].

`CCOC(=O)C1=C(Nc2ccccc2)S/C(=C\c2ccc(F)c(C#N)c2)C1=O`: in data set [9], the inhibition at 10 µM amounted to 9.9%.

Consider `N#Cc1ccsc1/N=C/c1ccccc1[N+](=O)[O-]`, for which the figures for the MIC in data set [10] and in data set [4] were 128 µg/mL (≈ 498 µM) and 32 µg/mL (≈ 124 µM), respectively.

Consider `CCOC(=O)c1c(NC(=O)C(F)(F)F)sc2c1CCN(C(=O)CCCCCBr)C2`, for which the Activity in data set [11] amounted to 125%.

Consider `COC(=O)c1c(NC(=O)Cn2cc(CNC34CC5CC(CC(C5)C3)C4)nn2)sc2c1CCC(C(C)(C)C)C2` (stereo not drawn), for which the Activity in data set [12] stood at 35%.

Consider `N#Cc1ccsc1/N=C/c1c[nH]c2cccc([N+](=O)[O-])c12`, for which the MIC worked out at 1020 µg/mL (≈ 3460 µM) in data set [4]; 128 µg/mL (≈ 432 µM) in [5]; 512 µg/mL (≈ 1730 µM) in data set [13]; 64 µg/mL (≈ 216 µM) in data set [7]; 512 µg/mL (≈ 1730 µM) in data set [8].

In the case of `N#Cc1c(NC(=O)c2cc(O)c(O)c(O)c2)sc2c1CCCC2`, the MIC is 0.45 µM (≈ 0.149 µg/mL) in data set [14], 0.15 µg/mL (≈ 0.454 µM) in data set [15] and 0.17 µg/mL (≈ 0.515 µM) in data set [16].

Turning to `N#Cc1c(N)sc2c1CCCC2`, in data set [17], the Activity is given as 38%. In addition, in [18], the zone of inhibition at 1280 µg/mL came out at 1.5 mm.

In the case of `N#Cc1ccsc1/N=C/c1ccccc1`, the minimum inhibitory concentration (MIC) in data set [4] was determined as 16 µg/mL (≈ 75.4 µM); in data set [19], 512 µg/mL (≈ 2410 µM); in [5], 32 µg/mL (≈ 151 µM); in data set [13], 32 µg/mL (≈ 151 µM); in [8], 256 µg/mL (≈ 1210 µM).

For the compound `CCOC(=O)C1=C(Nc2cccc([N+](=O)[O-])c2)S/C(=C\c2ccc[nH]2)C1=O`, the IC50 in [20] is 87.2 µM.

For `N#Cc1c(NC(=O)/C=C/c2ccc(O)cc2)sc2c1CCC2`, the IC50 in data set [21] amounted to 0.087 µM; in data set [23] it was 3.4 µM; in [24], 3.55 µM; in data set [25], 4.92 µM. In data set [22], the IC50 at 2 days is 236 µM.

As for `N#Cc1ccsc1/N=C/c1ccc(Br)cc1`, the MIC in [26] was found to be 101 µM (≈ 29.4 µg/mL); in data set [10] it was 128 µg/mL (≈ 440 µM); in data set [4] it was 512 µg/mL (≈ 1760 µM); in data set [19], 512 µg/mL (≈ 1760 µM); in data set [5] it was 64 µg/mL (≈ 220 µM); in data set [13] it was 1020 µg/mL (≈ 3520 µM). The MIC came to 128 µg/mL (≈ 440 µM) in data set [6], 32 µg/mL (≈ 110 µM) in [7] and 1020 µg/mL (≈ 3520 µM) in data set [8].

As a reminder, the inhibition is the relative decrease from the control value, in per cent. One may read the IC50 as the concentration at which inhibition is half-maximal. Broadly, the MIC is the smallest concentration in the dilution series that meets the test's criterion for growth inhibition.
